Laboratory results from article PMC3226492, “Isomer Profiles of Perfluorochemicals in Matched Maternal, Cord, and House Dust Samples: Manufacturing Sources and Transplacental Transfer” (Environmental Health Perspectives, 2011).
Like-named read-outs stand apart in the source and are kept apart here.

What was measured:
[1] = Transplacental transfer efficiency (TTE): cord serum at delivery divided by maternal serum concentration, present study; format: in vivo, human; details: for TTE calculated from cord:maternal serum concentrations, arithmetic mean / TTE calculated from cord:maternal serum concentrations, maximum / TTE calculated from cord:maternal serum concentrations, median / TTE calculated from cord:maternal serum concentrations, minimum: cord serum at delivery / maternal serum at 15 weeks of gestation; for Mean cord:maternal serum concentration: Present study
[2] = Total PFC concentrations in maternal and cord sera by HPLC-MS/MS; format: in vivo, human; details: for mean concentration in cord serum: cord serum at delivery
Protocol: Blood collection. Samples (n = 20) analyzed in this study are a subset of the Chemicals, Health and Pregnancy (CHirP) cohort recruited in 2007–2008 in Vancouver (BC, Canada) ([Webster et al. 2011]). All participants provided informed consent. Laboratory personnel collected blood samples from pregnant volunteers in Vancouver at 15 weeks of gestation, and samples of cord blood (n = 20) were collected at delivery. After serum separation, all samples were stored at –80°C. Ethical clearance was obtained from the research ethics boards of the University of British Columbia, the University of Alberta, Health Canada, and the three participating hospitals.
Serum preparation. The method of [Kuklenyik et al. (2004)] was adapted for the extraction of PFCs from serum using a Rapid Trace system (Caliper Life Sciences, Hopkinton, MA, USA). The solid-phase extraction cartridge (Oasis-HLB, Waters, Milford, MA, USA; 60 mg/3 mL) was conditioned with 2 mL methanol followed by 2 mL of 0.1 M formic acid. Serum was prepared for extraction by mixing 3 mL of 0.1 M formic acid with 1.0 mL serum. After the addition of mass-labeled internal standards (10 ng each), the mixture was vortexed and sonicated for 20 min. Prepared serum was added to the column and washed successively with 3 mL of 0.1 M formic acid, 6 mL of 50% 0.1 M formic acid/50% methanol, and 1 mL of 1% ammonium hydroxide. The cartridge was drained by vacuum, and PFCs were eluted with 1.0 mL of 1% ammonium hydroxide in acetonitrile. The eluate was concentrated to 100 μL followed by the addition of 200 μL of 90% 20 mM acetic acid in 10% methanol. Method blanks containing calf serum, a calf serum sample spiked at 0.5 ng/mL of each PFC, and a human serum sample spiked at 10 ng/mL were analyzed with the study samples.
Total PFC analysis. For total PFC concentrations, separation was by HPLC on a 150-mm Synergi Hydro-RP C-18 column (Phenomenex, Torrance, CA, USA). Gradient elution at 600 μL/min used A [20 mM ammonium acetate (pH 4) in water] and B (methanol) mobile phases. Initial conditions were 60% A for 1 min, ramped to 20% A by 3 min, a 5-min hold, an increase to 100% B by 8.5 min, and a hold until 14 min, at which time initial conditions were reestablished. MS/MS data were collected on an Applied Biosystems API 3000 mass spectrometer (Applied Biosystems, Carlsbad, CA, USA) using electrospray ionization in negative-ion mode [for mean recoveries of total PFCs in serum and dust, see Supplemental Material, Table 1 (http://dx.doi.org/10.1289/ehp.1003265)].

[3] = cited from earlier work
[4] = maternal serum, 15 weeks of gestation

Row | SMILES | TTE calculated from cord:maternal serum concentrations, arithmetic mean [1] | TTE calculated from cord:maternal serum concentrations, maximum [1] | TTE calculated from cord:maternal serum concentrations, median [1] | TTE calculated from cord:maternal serum concentrations, minimum [1] | also measured
1 | O=S(=O)(O)C(F)(C(F)(F)F)C(F)(F)C(F)(F)C(F)(F)C(F)(F)C(F)(F)C(F)(F)F (centres unmarked) [1m-PFOS] | 0.87 | 1.24 | 0.88 | 0.36 | 
2 | O=C(O)C(F)(F)C(F)(C(F)(F)F)C(F)(F)C(F)(F)C(F)(F)C(F)(F)F (centres unmarked) [3m-PFOA] | 0.76 |  | 0.68 | 0.07 | 
3 | O=S(=O)(O)C(F)(F)C(F)(F)C(F)(C(F)(F)F)C(F)(F)C(F)(F)C(F)(F)C(F)(F)F (centres unmarked) [3m-PFOS] | 0.67 | 1.12 | 0.68 | 0.21 | 
4 | O=C(O)C(F)(F)C(F)(F)C(F)(C(F)(F)F)C(F)(F)C(F)(F)C(F)(F)F (centres unmarked) [4m-PFOA] | 0.64 | 1.29 | 0.68 | 0.09 | TTE calculated from cord:maternal serum concentrations, maximum ([1]; listed as 4m-PFOA): > 1.0
5 | O=S(=O)(O)C(F)(F)C(F)(F)C(F)(F)C(F)(C(F)(F)F)C(F)(F)C(F)(F)C(F)(F)F (centres unmarked) [4m-PFOS] | 0.55 | 0.85 | 0.52 | 0.20 | 
6 | O=C(O)C(F)(F)C(F)(F)C(F)(F)C(F)(C(F)(F)F)C(F)(F)C(F)(F)F (centres unmarked) [5m-PFOA] | 0.86 | 2.26 | 0.54 | 0.09 | TTE calculated from cord:maternal serum concentrations, maximum ([1]; listed as 5m-PFOA): > 1.0
7 | O=S(=O)(O)C(F)(F)C(F)(F)C(F)(F)C(F)(F)C(F)(C(F)(F)F)C(F)(F)C(F)(F)F (centres unmarked) [5m-PFOS] | 0.53 | 0.93 | 0.52 | 0.25 | 
8 | O=S(=O)(O)C(F)(F)C(F)(F)C(F)(F)C(F)(F)C(F)(F)C(F)(C(F)(F)F)C(F)(F)F [Iso- PFOS] | 0.36 | 0.60 | 0.34 | 0.09 | 
9 | O=C(O)C(F)(F)C(F)(F)C(F)(F)C(F)(F)C(F)(C(F)(F)F)C(F)(F)F [Iso-PFOA] | 0.84 | 2.56 | 0.67 | 0.16 | 
10 | O=C(O)C(F)(F)C(F)(F)C(F)(F)C(F)(F)C(F)(F)C(F)(F)C(F)(F)C(F)(F)C(F)(F)F [Total PFDA, perfluorodecanoate] | 0.34 | 1.10 | 0.23 | 0.00 | mean concentration in cord serum [2]: 0.1 ng/mL; mean concentration in maternal serum [2, 4]: 0.4 ng/mL
11 | O=S(=O)(O)C(F)(F)C(F)(F)C(F)(F)C(F)(F)C(F)(F)C(F)(F)F [Total PFHxS, perfluorohexane sulfonate] | 0.41 | 0.56 | 0.38 | 0.29 | mean concentration in cord serum [2]: 0.7 ng/mL; concentration at 15 weeks of gestation ([2]; female, human, maternal serum, 15 weeks of gestation): 1.7 ng/mL
12 | O=C(O)C(F)(F)C(F)(F)C(F)(F)C(F)(F)C(F)(F)C(F)(F)C(F)(F)C(F)(F)F [Total PFNA, perfluorononanoate] | 0.41 | 0.78 | 0.38 | 0.13 | mean concentration in cord serum [2]: 0.4 ng/mL; mean concentration in maternal serum [2, 4]: 0.9 ng/mL
13 | O=C(O)C(F)(F)C(F)(F)C(F)(F)C(F)(F)C(F)(F)C(F)(F)C(F)(F)F [Total PFOA, perfluorooctanoate] | 0.61 | 0.96 | 0.63 | 0.32 | Mean cord:maternal serum concentration ([1]; Canada, 2007, n 20, maternal serum sampled in the second trimester): 0.61; Mean cord:maternal serum concentration ([1]; TTE adjusted from 15 weeks to time of delivery (~ 40 weeks) using data from Monroy et al. (2008)): 0.71; Mean cord:maternal serum concentration ([3]; Canada, 2004–2005, n 101, ref Monroy et al. 2008): 0.81; Mean cord:maternal serum concentration ([3]; Denmark, 1996–2002, n 50, maternal serum sampled in the first trimester, ref Fei et al. 2007): 0.55; Mean cord:maternal serum concentration ([3]; Denmark, 1996–2002, n 50, maternal serum sampled in the second trimester, ref Fei et al. 2007): 0.68; Mean cord:maternal serum concentration ([3]; Faroe Islands, 2000, n 12, ref Needham et al. 2011): 0.72; Mean cord:maternal serum concentration ([3]; Germany, 2003, n 11, ref Midasch et al. 2007): 1.26; Mean cord:maternal serum concentration ([3]; Germany, 2007–2009, n 27, ref Fromme et al. 2010): 0.70; Mean cord:maternal serum concentration ([3]; Korea, 2007, n 20, ref Kim et al. 2011): 0.69; Mean cord:maternal serum concentration ([3]; South Africa, 2005–2006, n 58, ref Hanssen et al. 2010): 0.71; mean concentration in cord serum [2]: 1.1 ng/mL; mean concentration in maternal serum [2, 4]: 1.8 ng/mL
14 | O=C(O)C(F)(F)C(F)(F)C(F)(F)C(F)(F)C(F)(F)C(F)(F)C(F)(F)F [n-PFOA] | 0.62 | 1.00 | 0.61 | 0.26 | 
15 | O=S(=O)(O)C(F)(F)C(F)(F)C(F)(F)C(F)(F)C(F)(F)C(F)(F)C(F)(F)C(F)(F)F [n-PFOS, linear perfluorooctane sulfonate] | 0.33 | 0.58 | 0.30 | 0.10 | 
16 | O=C(O)C(F)(F)C(F)(F)C(F)(F)C(C(F)(F)F)(C(F)(F)F)C(F)(F)F [tb-PFOA] | 0.25 | 0.48 | 0.25 | 0.02 | 
